Results taken from patent publication US11607404B2, “Combinations of RAD51 and PARP inhibitors” (Cyteir Therapeutics, Inc., priority 2019, dated 2023).
Read-outs that look alike come from different tables or passages of the source.

How the values were obtained:
[1] = Bi-directional Caco-2 permeability; assay type: in vitro ADME; conditions: human; for Papp A→B / Papp B→A: Caco-2, 37 C, up to 90 minutes; for Papp A→B: apical to basolateral, read-out: AB Papp (cm/sec × 10^6); for Papp B→A: basolateral to apical, read-out: BA Papp (cm/sec × 10^6); for efflux ratio: Caco-2 efflux ratio, read-out: BA/AB Ratio
Description: Bi-directional Caco-2 permeability was assayed. Caco-2 cells were seeded onto permeable polycarbonate supports and allowed to differentiate for about 3 weeks prior to being used in the assays. The cells were then exposed to the compounds from either the apical or basolateral sides and incubated at 37 C for up to 90 minutes under light agitation. Compound transport was then measured using LC/MS/MS analysis at 30, 60, and 90 minutes.

[2] = system: WI-38 cells (AID negative); assay: Primary screening cell killing assay repeated in AID negative cells; assay type: cell-based, Human; conditions: Homo sapiens; WI-38 cells (AID negative); read-out: AID− EC50
Description: (§1) Primary screening was a phenotypic screen that utilized the synthetic lethal interaction between AID and RAD51 to identify compounds that were both potent and on target. AID expressing cells are dependent upon RAD51 for survival; inhibiting RAD51 in AID positive cells results in a cytotoxic effect.
Percent cell death and EC50 values were calculated by comparing the cell viability of the compound treated wells to the non-treated wells. Normalized RLU values were obtained by subtracting the media well values from each of the wells in the same column, and then dividing that value by the DMSO treated cells values. The percent kill was then calculated by subtracting the normalized RLU value from 1 and multiplying by 100. The average normalized percent kill value and standard error of the mean was then calculated. The kill values were then inputted into Prism with the corresponding standard errors. In Prism a non-linear regression line was plotted with the data points using a semi-log scale, and the EC50 value was calculated.
The activity of the claimed compounds was measured in a variety of cell lines with different expression levels of activation induced cytidine deaminase (AICDA). The potency assay was repeated in all of the listed cell lines and the EC50 values recorded.

[3] = system: Daudi cell line (AID positive); assay: Primary screening cell killing assay (Cell-Titer Glo, Day 7); assay type: cell-based; conditions: Homo sapiens, 168 h; Daudi cells (AID positive), cell death on Day 7; read-out: AID+ EC50
Description: as §1
(§2) The first step was to set up a cell killing assay in the Daudi cell line (AID positive). A 96 well u-bottom plate was prepared by writing the experiment number, plate number, date and initials in the top right corner of the plate lid. With a sterile 300 ml reservoir, and 25 ml serological pipette, evaporation buffer media was pipetted into reservoir in 25 ml increments. Using the liquid handler, 150 ul of evaporation buffer media was pipetted from reservoir into rows A and H, and Columns 1 and 12 of the 96 well u-bottom plate. Cell cultures were counted to obtain the density of cells per ml, and the culture viability. The cell density information was used to obtain 1,000,000 cells from culture using a 5 mL serological pipette into an epi tube. The cell density information from the culture was used to calculate the number of cells and volume of media needed for the assay to seed 1250 cells in 130 ul of media per available culture well in the 96 well u-bottom plate. Rows B through F were used for cells (50 wells in total), with row G left for an empty media control. The calculation was overestimated by 10 mL to account for the dead volume in the 300 ml reservoir. Once the media volume was calculated, the appropriate volume of media was pipetted in 25 mL increments into the 250 mL bottle using a 25 mL serological pipette. The 250 ml bottle was capped tightly, and placed into a 37° C. water bath for 2 minutes. While the culture media was warming, 10 mL of fresh media was pipetted from the 500 mL culture media bottle into a sterile 25 mL reservoir. Using the Eppendorf multichannel pipette, 130 ul of media was piptted from the 25 mL reservoir into row G of the 96 well u-bottom plate. Once the 250 mL bottle of media was warmed, the volume of culture needed was pipetted into the bottle, and mixed gently with a 25 mL serological pipette as to not create bubbles, and then the contents of the bottle were pipetted into a new 300 mL reservoir. Using the liquid handler, 130 ul of culture was pipetted from the 300 mL reservoir into rows B through F of the 96 well u-bottom plate. Once the culture was added, the plate was placed into a 37° C. incubator until the compound master plate was prepared for use.
(§3) Two 96 well u-bottom plates were prepared by writing the master plate name in the upper right corner of the plate lid. Labeling one DMSO master and the other Media Master. The compounds of interest were obtained from the laboratory freezer, and placed into a 25 well storage box with a lid, and set the box aside. The compounds were vortexed after thawing but before use. Using an automatic multichannel pipette, 20 ul of 100% DMSO was pipetted into wells B3-B11 through G3-G11 of the DMSO master plate. For each compound on the master plate, 50 ul of the compound were pipetted in the appropriate well of row 2 (reference plate map to determine appropriate well). A serial dilution was prepared beginning by aspirating 20 ul from row 2 and mixing with row 3, repeating until row 11 was reached. Using the liquid handler, 194 ul of Daudi media was dispensed into wells B2-B11 through G2-G11 of the Media master plate. Using the liquid handler, 6 ul from the DMSO master plate was aspirated and dispensed into the media master plate, mixing 100 ul twice.
Compounds from master plate were then added to the culture plate. The culture plates were removed from the incubator, and set inside the biosafety cabinet. Using a liquid handler, 20 ul from wells B2 to B11 through G2 to G11 of master plate were aspirated, and dispensed into wells B2 to B11 through G2 to G11 of culture plate. This set was continued with each culture plate. […]

[4] = Human liver microsome stability; assay type: in vitro ADME; conditions: percentage of hepatic blood flow
Description: The stability of the claimed compounds was determined in the presences of human liver microsomes. The compounds were incubated with the microsomes at 37° C. for 45 minutes. Samples were analyzed using LC-MS/MS. Data analysis included half-life, clearance rate, and the percentage of hepatic blood flow (% QH) for each of the compounds in the different species.

[5] = Pharmacokinetic (PK) study; assay type: in vivo, Rat; conditions: po @ 80 mg/kg (30% PEG400, 10% Vitamin E TPGS in water)
Description: PK studies in mice were used to determine the fate of the compounds in a whole organism. Rats were treated with the compounds either orally of via IV at the indicated doses and followed for up to 24 hours. Plasma samples were taken at different time points and analyzed by LC-MS.

[6] = system: ARPE19/HPV16 (HPV Immortalized RPE); assay: Cell line screen (potency assay); assay type: cell-based; conditions: ARPE-19, AICDA expression Negative
Description: as §2, §3
Compounds from master plate were then added to the culture plate. The culture plates were removed from the incubator, and set inside the biosafety cabinet. Using a liquid handler, 20 ul from wells B2 to B11 through G2 to G11 of master plate were aspirated, and dispensed into wells B2 to B11 through G2 to G11 of culture plate. This set was continued with each culture plate. Once the culture plates acquired their 20 ul of compound dilutions, they were placed back into the incubator, until their reads on Day 7 of experiment. Cell death was measured on Day 7 of the experiment using Cell-Titer Glo and a Promega Plate reader. […]

[7] = Caco-2, apical to basolateral, read-out: AB Recovery %
[8] = Caco-2, basolateral to apical, read-out: BA Recovery %

recovery at 90 min [1, 7]	recovery at 90 min [1, 8]	Papp A→B [1]	Papp B→A [1]	efflux ratio [1]	SMILES	EC50 [2]	EC50 [3]	Human Liver Microsome Stability % QH [4]	F (%) @ 5 mg/kg ([5]; Rat Female)	F (%) @ 5 mg/kg ([5]; Rat Male)	EC50 [6]
65.3%	80.7%	8.7 ×10⁻⁶ cm/s	12.4 ×10⁻⁶ cm/s	1.4	CC(C)(C)NS(=O)(=O)c1cc(NC(=O)NCc2ccccc2)ccc1-c1cnc(C2CCC(NC(=O)OC3COC3)CC2)s1 (stereo not shown) [Compound 47]	> 1000 nM	≤ 100 nM	–	–	–	–
–	–	–	–	–	CC(C)(C)NS(=O)(=O)c1cc(NC(=O)OC2COC2)ccc1-c1cnc(C2CCC(NC(=O)OC3COC3)CC2)s1 (stereo not shown) [Compound 49]	> 1000 nM	≤ 1000 nM	–	–	–	–
61.9%	86.8%	1.3 ×10⁻⁶ cm/s	3.5 ×10⁻⁶ cm/s	2.7	CC(C)OC(=O)NC1CCC(c2nc(F)c(-c3ccc(NC(=O)NCc4ccccc4)cc3S(=O)(=O)NC(C)(C)C)s2)CC1 (stereo not shown) [Compound 57]	> 1000 nM	≤ 100 nM	–	–	–	–
79.7%	95.9%	–	–	–	CC(C)OC(=O)N[C@@H]1CCC(c2ncc(-c3ccc(NC(=O)NCc4ccccc4)cc3S(=O)(=O)NC(C)(C)C)s2)NC1 (stereo partly shown) [Compound 64]	> 1000 nM	≤ 100 nM	–	–	–	–
–	–	–	–	–	CC(C)OC(=O)N[C@H]1CC[C@H](c2ncc(-c3ccc(NC(=O)NCc4ccccc4)cc3S(=O)(=O)NC(C)(C)C)s2)CC1 [Compound 66A]	–	–	49.6%	3.31%	2.55%	> 10000 nM
–	–	–	–	–	CC(C)OC(=O)NC1CCC(c2ncc(-c3ccc(NC(=O)NCc4ccc(O)cc4)cc3S(=O)(=O)NC(C)(C)C)s2)CC1 (stereo not shown) [Compound 73]	> 1000 nM	≤ 100 nM	–	–	–	–
–	–	–	–	–	CC(C)OC(=O)NC1CCC(c2ncc(-c3ccc(NC(=O)NCc4ccccc4)cc3S(=O)(=O)NC(C)(C)CO)s2)CC1 (stereo not shown) [Compound 74]	> 1000 nM	≤ 100 nM	–	–	–	–
